{"source": "DBAASP", "test_in_all_cases": "≥ marks a high value that may be exact or a test limit, other limits are often not marked, values filed in µg/mL are converted to µM", "key": {"[1]": {"test_system": "Candida albicans ATCC 2048"}, "[2]": {"test_system": "Candida tropicalis ATCC 20240"}, "Candida krusei ATCC 6258": {"test_system": "Candida krusei ATCC 6258"}, "[3]": {"test_system": "Candida glabrata ATCC 90525"}, "[4]": {"test_system": "Candida parapsilosis ATCC 20224"}, "[5]": {"test_system": "Pseudomonas aeruginosa CUN 4158-02"}, "[6]": {"test_system": "Bordetella bronchiseptica CUN 11844-99"}, "[7]": {"test_system": "Escherichia coli ATCC 25922"}, "[8]": {"test_system": "Staphylococcus aureus ATCC 25923"}, "[9]": {"test_system": "Staphylococcus aureus CCT 2580"}, "[10]": {"test_system": "Pseudomonas aeruginosa ATCC 13388"}, "[11]": {"test_system": "Bacillus cereus ATCC 11778"}, "[12]": {"test_system": "Enterococcus faecium CCT 5079"}, "[13]": {"test_system": "Salmonella enterica subsp. enterica serovar Typhimurium ATCC 14028"}, "[14]": {"test_system": "Streptococcus mutans AU159"}, "[15]": {"test_system": "Escherichia coli CCT 1457"}, "[16]": {"test_system": "Enterococcus hirae ATCC 10541"}, "[17]": {"test_system": "Staphylococcus epidermidis ATCC 12228"}, "[18]": {"test_system": "Micrococcus luteus ATCC 4698"}, "[19]": {"test_system": "Pseudomonas aeruginosa ATCC 15422"}, "[20]": {"test_system": "Salmonella enterica subsp. enterica serovar Choleraesuis ATCC 10708"}, "[21]": {"test_system": "Streptococcus pneumoniae ATCC 11733"}, "[22]": {"test_system": "Bacillus thuringiensis ATCC 10792"}, "[23]": {"test_system": "Staphylococcus aureus CCT 6538"}, "[24]": {"test_system": "Escherichia coli ATCC 11775"}, "[25]": {"test_system": "Salmonella typhimurium CIP 103446"}, "[26]": {"test_system": "Staphylococcus aureus CIP 53.156"}, "[27]": {"test_system": "Enterococcus faecalis CIP 76.117"}, "[28]": {"test_system": "Bacillus megaterium CIP 51.17"}, "[29]": {"test_system": "Escherichia coli CIP 54.8T"}, "[30]": {"test_system": "Aeromonas salmonicida CIP 103209T"}, "[31]": {"test_system": "Vibrio alginolyticus CIP 109819"}, "[32]": {"test_system": "Listeria monocytogenes CIP 110871"}, "[33]": {"test_system": "Staphylococcus aureus ATCC 29213"}, "[34]": {"test_system": "Staphylococcus pseudintermedius"}, "[35]": {"test_system": "Pseudomonas aeruginosa ATCC 27853"}, "Pseudomonas aeruginosa": {"test_system": "Pseudomonas aeruginosa"}, "Bacillus megaterium Bm11": {"test_system": "Bacillus megaterium Bm11"}, "Escherichia coli ML-35": {"test_system": "Escherichia coli ML-35"}, "[36]": {"test_system": "Serratia marcescens ATCC 8100"}, "Escherichia coli D21": {"test_system": "Escherichia coli D21"}, "[37]": {"test_system": "Staphylococcus aureus NCTC 12981"}, "[38]": {"test_system": "Escherichia coli NCTC 10418"}}}
{"smiles": "C[C@H](NC(=O)CN)C(=O)N[C@@H](CCCCN)C(=O)N[C@@H](CCC(=O)O)C(=O)N[C@@H](CCCN=C(N)N)C(=O)N[C@@H](C)C(=O)N[C@@H](Cc1cnc[nH]1)C(=O)N[C@@H](CCC(N)=O)C(=O)O", "note": "[GAKERAHQ]", "values": [{"measurement": "MIC", "setting": "[1]", "result": "≥ 240", "unit": "µM"}, {"measurement": "MIC", "setting": "[2]", "result": "≥ 290", "unit": "µM"}, {"measurement": "MIC", "setting": "Candida krusei ATCC 6258", "result": "≥ 240", "unit": "µM"}, {"measurement": "MIC", "setting": "[3]", "result": "≥ 300", "unit": "µM"}, {"measurement": "MIC", "setting": "[4]", "result": "≥ 300", "unit": "µM"}]}
{"smiles": "CC[C@H](C)[C@H](NC(=O)CN)C(=O)NCC(=O)N[C@@H](CCCCN)C(=O)N[C@@H](Cc1ccccc1)C(=O)N[C@@H](CO)C(=O)N[C@@H](CCCCN)C(=O)N[C@@H](CCCCN)C(=O)NCC(=O)N[C@@H](C)C(=O)N[C@@H](C)C(=O)N[C@@H](C)C(=O)N[C@@H](CCCN=C(N)N)C(=O)N[C@@H](CCCN=C(N)N)C(=O)N[C@@H](CCCN=C(N)N)C(=O)N[C@@H](CCCCN)C(=O)N[C@H](C(=O)N[C@@H](CO)C(=O)N[C@@H](CC(C)C)C(=O)N[C@@H](CCCCN)C(=O)N[C@@H](C)C(=O)N[C@@H](CC(C)C)C(N)=O)C(C)C", "note": "[GIGKFSKKGAAARRRKVSLKAL]", "values": [{"measurement": "MIC", "setting": "[5]", "result": "≥ 219", "unit": "µM"}, {"measurement": "MIC", "setting": "[6]", "result": "≥ 219", "unit": "µM"}, {"measurement": "MIC", "setting": "[7]", "result": "> 219", "unit": "µM"}, {"measurement": "MIC", "setting": "[8]", "result": "> 219", "unit": "µM"}]}
{"smiles": "CC[C@H](C)[C@H](N)C(=O)N[C@@H](CC(N)=O)C(=O)N[C@@H](Cc1c[nH]c2ccccc12)C(=O)N[C@@H](CC(C)C)C(=O)N[C@@H](C)C(=O)N[C@H](C(=O)N[C@@H](C)C(=O)N[C@@H](CCCCN)C(=O)N[C@@H](CCCCN)C(=O)N[C@H](C(=O)N[C@@H](C)C(=O)NCC(=O)N[C@@H](CCSC)C(=O)N[C@@H](CC(C)C)C(N)=O)C(C)C)[C@@H](C)CC", "note": "[INWLAIAKKVAGML]", "values": [{"measurement": "MIC", "setting": "[9]", "result": 2.62, "unit": "µM"}, {"measurement": "MIC", "setting": "[10]", "result": "≥ 41.2", "unit": "µM"}, {"measurement": "MIC", "setting": "[11]", "result": 10.5, "unit": "µM"}, {"measurement": "MIC", "setting": "[12]", "result": 5.24, "unit": "µM"}, {"measurement": "MIC", "setting": "[13]", "result": 20.3, "unit": "µM"}, {"measurement": "MIC", "setting": "[14]", "result": 2.62, "unit": "µM"}, {"measurement": "MIC", "setting": "[15]", "result": 2.62, "unit": "µM"}, {"measurement": "MIC", "setting": "[16]", "result": 5.24, "unit": "µM"}, {"measurement": "MIC", "setting": "[17]", "result": 2.62, "unit": "µM"}, {"measurement": "MIC", "setting": "[18]", "result": 2.62, "unit": "µM"}, {"measurement": "MIC", "setting": "[19]", "result": 10.5, "unit": "µM"}, {"measurement": "MIC", "setting": "[7]", "result": 2.62, "unit": "µM"}, {"measurement": "MIC", "setting": "[20]", "result": 10.5, "unit": "µM"}, {"measurement": "MIC", "setting": "[8]", "result": 15.1, "unit": "µM"}, {"measurement": "MIC", "setting": "[21]", "result": 1.31, "unit": "µM"}, {"measurement": "MIC", "setting": "[22]", "result": 5.24, "unit": "µM"}, {"measurement": "MIC", "setting": "[23]", "result": 2.62, "unit": "µM"}, {"measurement": "MIC", "setting": "[24]", "result": 5.24, "unit": "µM"}]}
{"smiles": "CC[C@H](C)[C@H](NC(=O)[C@@H](N)CCCCN)C(=O)N[C@@H](CCCN=C(N)N)C(=O)N[C@@H](Cc1ccccc1)C(=O)N[C@H](C(=O)N[C@@H](CCCN=C(N)N)C(=O)N[C@H](C(=O)N[C@H](C(=O)N[C@@H](CO)C(=O)N[C@@H](CCCN=C(N)N)C(=O)N[C@@H](CC(C)C)C(=O)N[C@@H](CC(C)C)C(=O)N[C@@H](CCCCN)C(=O)N[C@@H](C)C(=O)N[C@@H](C)C(=O)N[C@@H](CC(C)C)C(=O)N[C@@H](C)C(=O)N[C@@H](CO)C(=O)N[C@H](C(=O)O)[C@@H](C)O)C(C)C)[C@@H](C)O)[C@@H](C)O", "note": "[KIRFTRTVSRLLKAALAST]", "values": [{"measurement": "MIC", "setting": "[25]", "result": "≥ 86.6", "unit": "µM"}, {"measurement": "MIC", "setting": "[26]", "result": 15.8, "unit": "µM"}, {"measurement": "MIC", "setting": "[27]", "result": "≥ 122", "unit": "µM"}, {"measurement": "MIC", "setting": "[28]", "result": 3.16, "unit": "µM"}, {"measurement": "MIC", "setting": "[29]", "result": 3.16, "unit": "µM"}, {"measurement": "MIC", "setting": "[30]", "result": 15.8, "unit": "µM"}, {"measurement": "MIC", "setting": "[31]", "result": "≥ 35.4", "unit": "µM"}, {"measurement": "MIC", "setting": "[32]", "result": "≥ 50", "unit": "µM"}]}
{"smiles": "CC[C@H](C)[C@H](NC(=O)[C@H](CC(C)C)NC(=O)[C@@H]1CCCN1C(=O)[C@H](CCCCN)NC(=O)[C@H](CC(C)C)NC(=O)[C@H](CCCN=C(N)N)NC(=O)[C@H](CCCN=C(N)N)NC(=O)[C@H](CC(C)C)NC(C)=O)C(=O)N[C@@H](CCCN=C(N)N)C(=O)N1CCC[C@H]1C(=O)N[C@@H](Cc1c[nH]c2ccccc12)C(=O)N[C@@H](CC(C)C)C(=O)N[C@@H](CCCN=C(N)N)C(=O)N1CCC[C@H]1C(=O)N[C@@H](CC(C)C)C(=O)N[C@@H](CCCN=C(N)N)C(=O)N[C@@H](CCCN=C(N)N)C(=O)N[C@@H](Cc1c[nH]c2ccccc12)C(=O)N[C@@H](Cc1c[nH]c2ccccc12)C(=O)N[C@@H](Cc1c[nH]c2ccccc12)C(N)=O", "note": "[LRRLKPLIRPWLRPLRRWWW]", "values": [{"measurement": "MIC", "setting": "[33]", "result": 11.4, "unit": "µM"}, {"measurement": "MIC", "setting": "[34]", "result": 16.2, "unit": "µM"}, {"measurement": "MIC", "setting": "[35]", "result": 5.72, "unit": "µM"}, {"measurement": "MIC", "setting": "Pseudomonas aeruginosa", "result": 4.04, "unit": "µM"}]}
{"smiles": "CC(C)C[C@H](NC(=O)[C@H](Cc1ccc(O)cc1)NC(=O)[C@@H]1CCCN1C(=O)[C@@H]1CCCN1C(=O)[C@H](CCCN=C(N)N)NC(=O)[C@@H]1CCCN1C(=O)[C@H](CCCN=C(N)N)NC(=O)[C@H](CCCN=C(N)N)NC(=O)[C@@H](N)CCCN=C(N)N)C(=O)N[C@@H](CCCN=C(N)N)C(=O)N1CCC[C@H]1C(=O)N[C@@H](CCCN=C(N)N)C(=O)N1CCC[C@H]1C(=O)N1CCC[C@H]1C(=O)N1CCC[C@H]1C(=O)O", "note": "[RRRPRPPYLRPRPPP]", "values": [{"measurement": "MIC", "setting": "Bacillus megaterium Bm11", "result": "≥ 32", "unit": "µM"}, {"measurement": "MIC", "setting": "[13]", "result": 32, "unit": "µM"}, {"measurement": "MIC", "setting": "Escherichia coli ML-35", "result": "≥ 32", "unit": "µM"}, {"measurement": "MIC", "setting": "[36]", "result": "≥ 32", "unit": "µM"}, {"measurement": "MIC", "setting": "[17]", "result": "> 64", "unit": "µM"}, {"measurement": "MIC", "setting": "Escherichia coli D21", "result": 16, "unit": "µM"}]}
{"smiles": "NC(=O)[C@H](Cc1c[nH]c2ccccc12)NC(=O)[C@H](CCCN=C(N)N)NC(=O)[C@@H](N)Cc1c[nH]c2ccccc12", "note": "[WRW]", "values": [{"measurement": "MIC", "setting": "[37]", "result": "≥ 234", "unit": "µM"}, {"measurement": "MIC", "setting": "[38]", "result": "≥ 234", "unit": "µM"}, {"measurement": "MIC", "setting": "[7]", "result": "> 366", "unit": "µM"}, {"measurement": "MIC", "setting": "[8]", "result": 183, "unit": "µM"}]}
